Measurements reported in paper PMC7304964 (Science Advances, 2020).

Molecular target: T1, human NPC1L1 (Homo sapiens, UniProt Q9UHC9)
T1 sequence (Q9UHC9 22-1359): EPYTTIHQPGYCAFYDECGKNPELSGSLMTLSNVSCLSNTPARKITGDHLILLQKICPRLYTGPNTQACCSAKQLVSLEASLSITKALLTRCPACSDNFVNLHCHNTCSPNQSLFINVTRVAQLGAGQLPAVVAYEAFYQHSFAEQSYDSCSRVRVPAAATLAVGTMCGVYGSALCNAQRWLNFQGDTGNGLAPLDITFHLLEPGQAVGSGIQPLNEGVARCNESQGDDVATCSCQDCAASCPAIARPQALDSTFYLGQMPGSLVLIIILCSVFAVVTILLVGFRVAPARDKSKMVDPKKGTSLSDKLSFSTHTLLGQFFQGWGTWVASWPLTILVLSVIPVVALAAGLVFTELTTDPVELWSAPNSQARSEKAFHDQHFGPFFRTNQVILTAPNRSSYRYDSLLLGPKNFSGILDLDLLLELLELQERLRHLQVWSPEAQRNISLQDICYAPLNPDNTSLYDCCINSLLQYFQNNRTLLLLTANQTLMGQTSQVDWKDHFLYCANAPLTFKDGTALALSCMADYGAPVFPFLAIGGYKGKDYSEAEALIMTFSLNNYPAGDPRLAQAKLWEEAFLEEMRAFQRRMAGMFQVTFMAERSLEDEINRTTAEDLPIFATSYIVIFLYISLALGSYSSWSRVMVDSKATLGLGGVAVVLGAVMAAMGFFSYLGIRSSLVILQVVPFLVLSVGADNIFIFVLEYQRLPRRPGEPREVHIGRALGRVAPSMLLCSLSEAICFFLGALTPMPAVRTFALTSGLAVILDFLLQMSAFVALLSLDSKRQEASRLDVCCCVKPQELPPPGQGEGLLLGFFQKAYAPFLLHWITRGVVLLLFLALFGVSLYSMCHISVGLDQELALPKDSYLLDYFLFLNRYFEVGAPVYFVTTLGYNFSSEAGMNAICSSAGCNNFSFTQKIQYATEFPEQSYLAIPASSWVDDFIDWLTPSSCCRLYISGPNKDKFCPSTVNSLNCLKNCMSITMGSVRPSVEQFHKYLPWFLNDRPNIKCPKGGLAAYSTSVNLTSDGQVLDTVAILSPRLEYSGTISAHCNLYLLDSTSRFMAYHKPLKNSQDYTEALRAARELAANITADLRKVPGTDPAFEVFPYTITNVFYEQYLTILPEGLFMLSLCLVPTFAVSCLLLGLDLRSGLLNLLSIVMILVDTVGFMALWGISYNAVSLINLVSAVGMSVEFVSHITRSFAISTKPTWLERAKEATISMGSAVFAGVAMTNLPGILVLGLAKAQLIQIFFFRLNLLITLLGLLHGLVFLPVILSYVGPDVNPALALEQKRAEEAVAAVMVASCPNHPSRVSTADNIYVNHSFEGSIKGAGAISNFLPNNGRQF
Assay: 3H-cholesterol uptake inhibition in hNPC1L1/MDCKII cells
Format: cell-based

Structure (SMILES)	IC50 [nM]
O=C1[C@H](CC[C@H](O)c2ccc(F)cc2)[C@@H](c2ccc(O)cc2)N1c1ccc(F)cc1 [Eze, ezetimibe]	3860
O=C(O)[C@H]1O[C@@H](Oc2ccc([C@@H]3[C@@H](CC[C@H](O)c4ccc(F)cc4)C(=O)N3c3ccc(F)cc3)cc2)[C@H](O)[C@@H](O)[C@@H]1O [Eze-Glu, ezetimibe-glucuronide]	682
